# According to patent US10364314B2, “Compound, resin, material for forming underlayer film for lithography, composition for forming underlayer film for lithography, underlayer film for lithography, resist pattern forming method, circuit pattern forming method, and purification method” (Mitsubishi Gas Chemical Company, Inc., priority 2015, dated 2019):
# Assay: Solubility in PGME and PGMEA at 23° C.
# Type: physicochemical
# Method: The amount of each compound dissolved in 1-methoxy-2-propanol (PGME) and propylene glycol monomethyl ether acetate (PGMEA) was measured at 23° C., and the results were evaluated according to the following criteria.
# Evaluation A: 10% by mass or more
# Evaluation B: 5% by mass or more and less than 10% by mass
# Evaluation C: less than 5% by mass
SMILES,Evaluation of the solubility in PGME and PGMEA,solubility in PGME and PGMEA
Oc1ccc2c3c(ccc2c1)Oc1ccc2cc(O)ccc2c1C3c1c[nH]c(-c2ccccc2)n1 [IMX-4],B (5% by mass or more and less than 10% by mass),≥ 5 % by mass
Oc1ccc2c3c(ccc2c1)Oc1ccc2cc(O)ccc2c1C3c1c[nH]cn1 [IMX-2],A (10% by mass or more),≥ 10 % by mass
CCCCc1nc(C2c3c(ccc4cc(O)ccc34)Oc3ccc4cc(O)ccc4c32)c(Cl)[nH]1 [IMX-5],A (10% by mass or more),≥ 10 % by mass

# Results, then the compound that gave them:
Evaluation of the solubility in PGME and PGMEA,solubility in PGME and PGMEA,SMILES
A (10% by mass or more),≥ 10 % by mass,Oc1ccc(-c2ccc(O)c(C(c3c[nH]cn3)c3cc(-c4ccc(O)cc4)ccc3O)c2)cc1 [IMX-3]
A (10% by mass or more),≥ 10 % by mass,Oc1ccc2ccc3c(c2c1)C(c1c[nH]cn1)c1c(ccc2ccc(O)cc12)O3 [IMX-1]
